Reference: patent US9801373B2, “Compounds for alleviating phosphate starvation symptoms in plants” (Commissariat a l'Energie Atomique et aux Energies …, priority 2012, dated 2017)
“Also recorded” adds a separate entry of the source.

Key:
Type in all cases: in vivo, Arabidopsis thaliana
PHT1;4 expression = test: Chemical genetics screen, GUS staining of pht1;4-1 reporter line; details: 25 μM, 5 days on −Pi
Excerpt: A “chemical genetics” approach has been carried out to isolate compounds that inhibit the phosphate (Pi) response in Arabidopsis thaliana. Compounds were screened for their ability to inhibit the expression of a phosphate starvation marker, namely the high affinity Pi transporter PHT1,4 gene. For the screening, the A. thaliana pht1;4-1 line (ecotype Wassilewskija) was chosen (Misson et al., 2004). It contains a T-DNA construct inserted into Pht1;4 gene creating a transcriptional fusion with a GUS reporter gene. For phenotypic analyses, A. thaliana Columbia and various lines derived from this ecotype were used. They are either transgenic lines expressing reporter gene as cycB1::GUS (Colón Carmona et al., 1999), MGD3::LUC, PHT1;4::LUC, At1g73010::LUC or various mutants affecting root response to low Pi such as: pdr2 (Ticconi et al., 2004), lpr1, lpr2 (Svistoonoff et al., 2007), lpi1, lpi2 and lpi3 (Sanchez-Calderon et al., 2006).
For the screening, the LATCA collection of 3600 biologically active compounds (Zhao et al., 2007) was used at a final concentration of 25 μM in 1% DMSO. Four to five Arabidopsis seeds of pht1;4-1 (Misson et al., 2004) reporter line were sown in 96-well plates containing 100 μL liquid MS/10 medium with 500 μM of Pi at pH 5.7. After 2 days at 4° C., plants were grown for five days in a culture chamber under a 16 h light/8 h dark regime (24/21° C., 150 μE m^−2s^−1). Medium was then replaced by MS/10 with only 5 μM Pi and the tested compounds were added to the 96-well plates. […] Five days later, plantlets were analysed by GUS staining to assay the activity of the reporter gene inserted in pht1;4 gene. […] Then, plates were analysed using a MZ16 stereomicroscope (Leica microsystems, Germany).
The GUS activity was detected as previously described by Jefferson et al. (1987), using a GUS staining solution containing 50 mM sodium phosphate buffer pH 7.0; 0.01% Triton X-100, 1 mM K3Fe(CN)6, 1 mM K4Fe(CN)6, 1 mg/ml 5-bromo-4-chloro-3-indolyl B-D-glucuronide (X-Gluc). […]

[1] = Total phosphorus content by ICP; details: FIG. 3 (C)
Experimental: (§1) For the quantification of ions content, 50 mg of dry weight of each sample were mineralized in 14% HNO3 using a MarsX microwave system (CEM) for the determination of macro- and microelements by inductively coupled plasma optical emission spectrometry (ICP OES Vista MPX, Varian). Biological triplicates were performed for all experiments.

phosphatase activity = test: Phosphatase activity on root samples; details: 7-days-old plants, −Pi+PTN1 40 μM, FIG. 4
Experimental: Soluble proteins were extracted with 50 mM TRIS pH 7.4 and 1 mM DTE (1,4-Dithioerythritol, Sigma, 6892-68-8). The protein concentration was determined by the Bradford methods, using albumin from bovine serum (BSA, Sigma, 9048-46-8) as a standard. The phosphatase activity in solution was determined as previously described by Kolari and Sarjala, (1995), by measuring the release of nitrophenol from 0.6 mM p-nitrophenylphosphate in 50 mM sodium acetate pH 5. Reactions were incubated at 30° C. for […] and were stopped with 10% of Na2CO3, after which the absorbance at 405 nm was measured.

wild-type (WT) seedlings = test: Primary root growth of wild-type seedlings
Experimental: In the Pi deficient medium, NaCl (0.5 mM) was used to replace the equivalent amount of sodium provided by NaH2PO4. For controls of the effects of the compounds, 1% of DMSO (Dimethyl sulfoxid, SIGMA, 472301), solvent for the tested compounds, was added. After 2 days at 4° C., the plates were placed in a vertical position and plants were grown in a culture chamber under a 16 h light/8 h dark regime (24/21° C., 150 μE m^−2s^−1). For 4 weeks culture, large plates (24×24 cm) were placed in a horizontal position. Root architecture and aerial part area were quantified using program ImageJ.

Fe content assay by ICP = details: −Pi+PTN1 40 μM, FIG. 9 (B)
Experimental: as §1

anthocyanin accumulation = test: Anthocyanins content; details: FIG. 10 (C)
Experimental: Lipids and anthocyanins were analyzed as previously described by Jouhet (2003) and Ticconi (2001).

starch accumulation = test: Starch staining with lugol; details: FIG. 10 (D)
Experimental: Starch staining was performed according to Zakhleniuk et al. (2001). Aerial part of plants was placed 6 h in EtOH 90% before to be iodine stained for 30 min in lugol (lugol solution; Sigma, France) and washed several times in water.

O=c1c(Sc2ccc(Cl)cc2)c(Sc2ccc(Cl)cc2)c1=O [PTN1]
toxicity as cause of reduced reporter gene expression (PHT1;4 expression): not explained by toxicity
phosphorous amount vs −Pi control, leaves [1]: +40%
phosphorous amount vs −Pi control, shoot [1]: +90%
phosphatase activity (phosphatase activity): not altered; also recorded: did not impact the phosphatase activity
primary root growth at various external Pi concentrations (15-250 uM) (wild-type (WT) seedlings; 10 uM, 5 days on Pi rich medium then 24 hours on tested conditions, FIG. 7 (D)): improved root growth until 50/75 μM of Pi
primary root growth on −Pi (wild-type (WT) seedlings; WT, 7-day-old plantlets, FIG. 7 (A)): promote the primary root growth in a dose dependent manner
concentration of maximum effect on primary root growth and PHT1;4 inhibition (wild-type (WT) seedlings; −Pi): 40 µM
Fe content in plants (Fe content assay by ICP): did not reduce the Fe content
anthocyanin accumulated, less than control grown on −Pi (anthocyanin accumulation): around 60%
starch accumulation (starch accumulation): severely attenuated
